Data taken from patent US20240425524A1, “SPIROTRICYCLE RIPK1 INHIBITORS AND METHODS OF USES THEREOF” (Merck Sharp & Dohme LLC, priority 2021, published 2024).
pEC50: −log10 of the molar value.

Biological target: RIPK1 (Homo sapiens (Human), UniProt Q13546)
Experiment: RIPK1-ADP-Glo Enzymatic Assay
Format: biochemical
Details: recombinant GST-RIPK1 kinase domain (residues 1-327), 25 nM, ten-point titration, 30 minutes pre-incubation
Procedure, shortened: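 GST-RIPK1 kinase domain (residues 1-327, Sf21-expressed; 25 nM final) was pre-incubated 30 min at ambient temperature with compound (10-point 1:3 series from 100000 nM, 1% DMSO) in HEPES pH 7.3 buffer with 20 mM MgCl2. The reaction was started with 900 μM ATP (addition solution) and 3 μM dephosphorylated MBP and ran 150 min. Read-out was ADP-Glo luminescence, with EC50 from a four-parameter fit.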

RIPK1, sequence (Q13546 1-327): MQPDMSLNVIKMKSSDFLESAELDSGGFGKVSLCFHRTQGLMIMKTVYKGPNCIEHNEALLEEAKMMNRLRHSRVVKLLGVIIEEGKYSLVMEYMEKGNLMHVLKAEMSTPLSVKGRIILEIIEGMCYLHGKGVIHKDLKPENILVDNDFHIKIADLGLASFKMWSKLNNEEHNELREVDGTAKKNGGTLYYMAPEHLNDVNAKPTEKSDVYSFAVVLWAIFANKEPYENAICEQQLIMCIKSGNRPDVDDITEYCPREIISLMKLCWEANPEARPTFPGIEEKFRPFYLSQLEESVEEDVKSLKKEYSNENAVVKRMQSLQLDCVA

pEC50 | Structure (SMILES)
7.08 | COc1ccc(C(=O)N2CCC3(CC2)CN2CC[C@@H](c4cc(F)cc(F)c4)N2C3=O)cc1F [Example 4.16, (S)-7′-(3,5-difluorophenyl)-1-(3-fluoro-4-methoxybenzoyl) dihydro-l′H,3′H,5′H-spiro[piperidine-4,2′-pyrazolo[1,2-a]pyrazol]-l′-one]
7.31 | N#Cc1cc(N2CCC3(CC2)CN2CC[C@@H](c4cc(F)cc(F)c4)N2C3=O)ccn1 [Example 2.4, (S)-4-(7′-(3,5-difluorophenyl)-1′-oxodihydro-l′H,3′H,5′H-spiro[piperidine-4,2′-pyrazolo[1,2-a]pyrazol]-1-yl)picolinonitrile]

Further lines, the molecule ahead of its results:

Structure (SMILES) | pEC50
Cc1cc(N2CCC3(CC2)CN2CC[C@@H](c4cc(F)cc(F)c4)N2C3=O)nc(Cl)n1 [Example 1.48, (S)-1-(2-chloro-6-methylpyrimidin-4-yl)-7′-(3,5-difluorophenyl)dihydro-1′H,3′H,5′H-spiro[piperidine-4,2′-pyrazolo[1,2-a]pyrazol]-1′-one] | 6.84
N#Cc1ccc(N2CCC3(CC2)CN2CC[C@@H](c4cc(F)cc(F)c4)N2C3=O)n2nccc12 [Example 7.1] | 8.22
O=C1N2[C@H](c3cc(F)cc(F)c3)CCN2CC12CCN(c1cc(O)ncn1)CC2 [Example 1.2, (7′S)-7′-(3,5-difluorophenyl)-1-(6-hydroxypyrimidin-4-yl)dihydro-1′H,3′H,5′H-spiro[piperidine-4,2′-pyrazolo[1,2-a]pyrazol]-1′-one] | 6.82
O=C1N2[C@H](c3cc(F)cc(F)c3)CCN2CC12CCN(c1cc(F)ccn1)CC2 [Example 1.3, (7′S)-7′-(3,5-difluorophenyl)-1-(4-fluoropyridin-2-yl)dihydro-1′H,3′H,5′H-spiro[piperidine-4,2′-pyrazolo[1,2-a]pyrazol]-1′-one] | 7.72
O=C1N2[C@H](c3cc(F)cc(F)c3)CCN2CC12CCN(c1nccn3ncnc13)CC2 [Example 1.79, (S)-1-([1,2,4]triazolo[1,5-a]pyrazin-8-yl)-7′-(3,5-difluorophenyl)dihydro-1′H,3′H,5′H-spiro[piperidine-4,2′-pyrazolo[1,2-a]pyrazol]-1′-one] | 7.52
